The test system of this assay is conscious rat. As to the kind of experiment: Antihypertensive evaluation (AHP3): aortic blood pressure and heart rate from conscious rats. It counts as in vivo. Conditions: hour 1. An excerpt:
This test procedure is described in the following paragraphs.
A Method for the Direct Monitoring of Aortic Blood Pressure and Heart Rate from Conscious Rats
The continuous monitoring of pulsatile blood pressure (BP) from unrestrained conscious rats surgically equipped with polyethylene cannulas was accomplished by means of a computer assisted data capture scheme (CADCS). The basic elements of the methodology are the cannulation procedure and the CADCS.
Cannulation Procedure: Rats were anesthetized with Telazol (1:1 tiletamine HCl and zolazepam HCl); 20-40 mg/kg IM and the descending aorta exposed via a midline incision. Cannulas fabricated from polyethylene tubing were inserted into the aorta via an undersized puncture hole below the renal arteries. The puncture hole was made by a 23 G disposable needle with a section of the aorta clamped off above and below the puncture site. The cannulas, consisting of a PE100 (0.86 mm ID) body and a PE50 (0.58 mm ID) tip, were attached to a trocar, inserted through the psoas muscle, and passed subcutaneously along the midline of the back and externalized between the ears. […]
CADCS: The pulsatile blood pressure and heart rate of each of 32 rats was monitored every minute by means of two in-laboratory microcomputers communicating directly with a data concentrator computer. […]

Consider `OC[C@H]1O[C@@H](n2cnc3c(NC4Cc5cccc6cccc4c56)ncnc32)[C@H](O)[C@@H]1O` (some centres unmarked) [Example 1, N^6 -Acenaphthyladenosine], for which, where the note is “30 mg/kg, ↓ = decrease”, the “MAP (mean arterial pressure) decrease” value came out at 30%.
Turning to `OC[C@H]1O[C@@H](n2cnc3c(NCC4=Cc5cccc6cccc4c56)ncnc32)[C@H](O)[C@@H]1O` [Example 2, N^6-(1-acenaphthylenylmethyl)adenosine], the “HR (heart rate) increase” value (10 mg/kg, ↑ = increase) came to 0%.

The values are drawn from patent US4673670A, “N^6 -acenaphthyl adenosines and analogs thereof” (Warner-Lambert Company, priority 1986, dated 1987).
